Reference: patent US20180092934A1, “COMPOSITION FOR DNA PROTECTION” (priority 2016, published 2018)

How the values were obtained:
[1] = tested on: alcohol induced DNA damage; experiment: Comet assay (SCGE) on whole blood, alcohol-induced DNA damage in rats; format: in vivo, Male Wistar albino rats; details: single oral dose in 30% alcohol 4 gm/kg, 4 hr data, n = 4
Excerpt: The Single Cell Gel Electrophoresis assay (SCGE, also known as comet assay) is a straightforward and sensitive technique for the detection of DNA damage at the level of the individual eukaryotic cell. It is being used as a standard technique for evaluation of DNA damage/repair, biomonitoring and genotoxicity testing. It involves the encapsulation of cells in a low-melting-point agarose suspension, lysis of the cells in neutral or alkaline (pH>13) conditions, and electrophoresis of the suspended lysed cells. The term “comet” refers to the pattern of DNA migration through the electrophoresis gel, which often resembles a comet (Cheng-Hung Chuang, Miao-Lin Hu. Use of whole blood directly for single-cell gel electrophoresis (comet) assay in vivo and white blood cells for in vitro assay. Mutation Research; 564 (2004) 75-82.).
(§1) Saline/Alcohol (4.0 gm/kg/day, p.o.)/Formulation with alcohol (4.0 gm/kg/day, p.o.) were administered (fed orally by orogastric cannula) for one day. Blood samples were collected before administration of the Saline/Alcohol/Formulation with alcohol and designated as ‘0’ hour, then 2 and 4 hours after the dose. For comet assay one part of the blood was collected in heparinised tube and the other part was allowed to clot to get serum for 8-OHdG assay. Single cell gel electrophoresis (SCGE, the Comet assay) was carried out using whole blood (Cheng-Hung Chuang, Miao-Lin Hu. Use of whole blood directly for single-cell gel electrophoresis (comet) assay in vivo and white blood cells for in vitro assay. Mutation Research; 564 (2004) 75-82.). In short, 15 μl of whole blood was mixed with low melting agarose and fixed on a microscope slide. Those are then lysed by buffer enriched with detergent and high salt. Concomitant electrophoresis at alkaline pH results in unwinding of DNA followed by structures close to comets, when observed by fluorescence microscopy. The intensity of the comet tail relative to the head presents the number of DNA breaks. The probable basis for this is that loops containing a break lose their super coiling and become free to extend toward the anode. This is followed by visual analysis with staining of DNA and calculating fluorescence to determine the extent of DNA damage (Collins, A. R. (2004). “The comet assay for DNA damage and repair: principles, applications, and limitations”. Mol. Biotechnol. 26 (3): 249-261). 8-hydroxy-2-deoxyguanosine was estimated (8-OHdG) by ELISA kit using competitive-ELISA as the method. The microtiter plate is pre-coated with 8-OHdG. 8-OHdG in the sample or standard competes with a fixed amount of 8-OHdG on the solid phase supporter for sites on the Biotinylated Detection Ab specific to 8-OHdG. Excess conjugate and unbound sample or standard were washed from the plate, and Avidin conjugated to Horseradish Peroxidase (HRP) is added to each microplate well. After incubation a TMB substrate solution is added to each well. The enzyme-substrate reaction is terminated by the addition of a sulphuric acid solution and the color change was measured by plate reader at a wavelength of 450 nm±2 nm. The concentration of 8-OHdG in the samples was then determined by comparing the OD of the samples to the standard curve (Szymańska-Chabowska A et al, Evaluation of DNA Damage in People Occupationally Exposed to Arsenic and Some Heavy Metals. Polish J. of Environ. Stud. Vol. 18, No. 6 (2009), 1131-1139).
(§2) % Protection=1−[(T−NS)/(AL−NS)]×100
(§3) T=Mean value of drug treated, NS=Mean value of normal control, AL=Mean value of alcohol alone.
Male Wistar albino rats weighing 150-200 g were procured and randomly divided into groups consisting of four (4) animals in each group. DNA damage was induced by alcohol in rats by oral administration of 30% alcohol (4 gm/kg/p.o.) once (single dose) and this group served as the negative control and treated groups received different formulations. […]

[2] = tested on: 8-hydroxy-2-deoxyguanosine (8-OHdG); experiment: Serum 8-OHdG ELISA, alcohol-induced DNA damage in rats; format: in vivo, Male Wistar albino rats; details: single oral dose in 30% alcohol 4 gm/kg, 4 hr data, n = 4
Excerpt: In nuclear and mitochondrial DNA, 8-hydroxy-2′-deoxyguanosine (8-OHdG) is one of the predominant forms of free radical-induced oxidative lesions, and is used as a biomarker for oxidative stress. Rat 8-OHdG ELISA kit from Elabscience is used for the assay. (Valavanidis A et al (2009). 8-hydroxy-2′-deoxyguanosine (8-OHdG): A critical biomarker of oxidative stress and carcinogenesis. J Environ Sci Health C Environ Carcinog Ecotoxicol Rev. 27(2):[…]).
as §1, §2, §3
Male Wistar albino rats weighing 150-200 g were procured and randomly divided into groups consisting of four (4) animals in each group. DNA damage was induced by alcohol in rats by oral administration of 30% alcohol (4 gm/kg/p.o.) once (single dose) and this group served as the negative control and treated groups received different formulations.
All drug solutions were prepared in 40% aqueous alcohol, adjusting the pH in the range of 5.0-10.0 for evaluation of alcohol induced DNA damage and protection against it. This solution was further diluted with distilled water to obtain 30% aqueous alcoholic solution and administered orally by gavage to different rats group of step (1a). […]

Structure (SMILES)	COMET Protection [1] [%]	8OHdG Protection [2] [%]
OC[C@@H](O)[C@@H](O)[C@H](O)[C@H](O)CO [1.2 Man, D-Mannitol]	13.59	24.85
CC1(C)[C@@H](O[C@H]2O[C@H](C(=O)O)[C@@H](O)[C@H](O)[C@H]2O[C@@H]2O[C@H](C(=O)O)[C@@H](O)[C@H](O)[C@H]2O)CC[C@]2(C)[C@H]3C(=O)C=C4[C@H]5C[C@@](C)(C(=O)O)CC[C@]5(C)CC[C@@]4(C)[C@]3(C)CC[C@@H]12 [0.3 18α-GA, 18α-Glycyrrhizin]	5.78	10.46
CC1(C)[C@@H](O[C@H]2O[C@H](C(=O)O)[C@@H](O)[C@H](O)[C@H]2O[C@@H]2O[C@H](C(=O)O)[C@@H](O)[C@H](O)[C@H]2O)CC[C@]2(C)[C@H]3C(=O)C=C4[C@H]5C[C@@](C)(C(=O)O)CC[C@]5(C)CC[C@@]4(C)[C@]3(C)CC[C@@H]12 [0.1 18α-GA, 18α-Glycyrrhizin]	0.59	4.20
OC[C@@H](O)[C@@H](O)CO [1.2 Ery, D-Erythritol]	18.69	23.08
CC1(C)[C@@H](O[C@H]2O[C@H](C(=O)O)[C@@H](O)[C@H](O)[C@H]2O[C@@H]2O[C@H](C(=O)O)[C@@H](O)[C@H](O)[C@H]2O)CC[C@]2(C)[C@H]3C(=O)C=C4[C@@H]5C[C@@](C)(C(=O)O)CC[C@]5(C)CC[C@@]4(C)[C@]3(C)CC[C@@H]12 [0.3 18β-GA, 18β-Glycyrrhizin]	6.07	11.24
CC1(C)[C@@H](O[C@H]2O[C@H](C(=O)O)[C@@H](O)[C@H](O)[C@H]2O[C@@H]2O[C@H](C(=O)O)[C@@H](O)[C@H](O)[C@H]2O)CC[C@]2(C)[C@H]3C(=O)C=C4[C@@H]5C[C@@](C)(C(=O)O)CC[C@]5(C)CC[C@@]4(C)[C@]3(C)CC[C@@H]12 [0.04 18β-GA, 18β-Glycyrrhizin]	0	0
OC[C@@H](O)[C@@H](O)[C@H](O)[C@H](O)CO [2.5 Man, D-Mannitol]	33.98	40.24
CC1(C)[C@@H](O[C@H]2O[C@H](C(=O)O)[C@@H](O)[C@H](O)[C@H]2O[C@@H]2O[C@H](C(=O)O)[C@@H](O)[C@H](O)[C@H]2O)CC[C@]2(C)[C@H]3C(=O)C=C4[C@@H]5C[C@@](C)(C(=O)O)CC[C@]5(C)CC[C@@]4(C)[C@]3(C)CC[C@@H]12 [0.1 18β-GA, 18β-Glycyrrhizin]	0.97	3.55
OC[C@@H](O)[C@@H](O)[C@H](O)[C@H](O)CO [0.8 Man, D-Mannitol]	9.22	14.20
OC[C@@H](O)[C@@H](O)[C@H](O)[C@H](O)CO [0.5 Man, D-Mannitol]	5.34	7.69
OC[C@@H](O)[C@@H](O)CO [0.8 Ery, D-Erythritol]	8.25	15.98
OC[C@@H](O)[C@@H](O)CO [2.5 Ery, D-Erythritol]	34.71	37.28
